{
  "source": "patent US8097585B2",
  "about": "“Methods of treating inflammation by administration of heme oxygenase-1 and products of heme degradation” (priority 2002, dated 2012)",
  "key": {"DSS-colitis": {"test_system": "DSS-colitis", "test": "DSS-colitis (acute colitis) mouse model: weight loss, DAI, symptoms, crypt score", "type": "in vivo, C57BL/6 mice", "excerpt": "Animals. Pathogen-free male C57BL/6 mice, 4-6 weeks of age (Taconic; C57BL/6×129 svj strain) were used in this example. Mice were kept for one week at 4 mice/cage and fed normal laboratory chow and drinking water ad libitum prior to the experiments. All mice weighed between 22.5 g and 27.7 g at the beginning of the trial. The animal experimentation protocol was reviewed and approved by the Animal Care and Use Committees of the Beth Israel Deaconess Medical Center.\nInduction of Colitis. Colitis was induced by feeding mice 5% (wt/v) dextran sodium sulfate (DSS) (MW 40,000; ICN Biomedicals Inc., OH), dissolved in distilled water, for a period of 7 days. The resulting condition was termed “DSS-colitis.” Control animals were fed distilled water ad libitum. The mortality rate in the control group and the CO-treated group was 10% (2/20) and 14% (2/14), respectively. These animals were excluded from the statistical analysis. In the other groups, no mortality occurred during 7 days of 5% DSS treatment.\nExperimental Reagents and Treatment Protocol. Cobalt protoporphyrin (CoPPIX), zinc protoporphyrin (ZnPPIX, Porphyrin Products, Logan, Utah) and biliverdin dihydrochloride (ICN Biomedicals Inc., OH) were dissolved in a small amount 0.2 M NaOH, subsequently adjusted to a pH of 7.4 with 1 M HCl, and diluted in 0.9% NaCl. The stock solutions (CoPPIX and ZnPPIX=1 mg/ml, biliverdin=10 mM) were aliquoted and kept at −70° C. until used. Light exposure was limited as much as possible. CoPPIX (5 mg/kg), ZnPPIX (20 mg/kg) and biliverdin (50 μmol/kg) were administered to the mice intraperitoneally (i.p.) 24 hours before induction of DSS-colitis and daily thereafter. Desferoxamine (DFO) was prepared in imidazole buffer (50 mM imidazole, 220 mM NaCl, pH 7.4). DFO was injected subcutaneously (s.c.) twice daily (125 mg/kg) or infused i.p. (130 mg/kg/day; pumping rate 0.5 μl/hour for 8 days) by miniosmotic Alzet™ pumps (Alza Corporation, Palo Alto, Calif.) (Postma et al., Exp. Parasitol. 89(3):323-30 1998). The pumps were installed i.p. 24 hours before induction of colitis. When animals were sacrificed at day 7 of DSS treatment, the pumps were removed and evaluated to determine if DFO application had taken place.\nCO gas was administrated exogenously by putting animals in a CO exposure chamber (Otterbein et al., Nat. Med. 6(4):422-8, 2000). Briefly, CO at a concentration of 1% (10,000 parts per million (ppm)) in compressed air was mixed with balanced air (21% oxygen) in a stainless steel mixing cylinder before entering the exposure chamber. CO concentrations were controlled by varying the flow rates of CO in a mixing cylinder before delivery to the chamber. Because the flow rate is primarily determined by the O2 flow, only the CO flow was changed to deliver the final concentration to the exposure chamber. A CO analyzer (Interscan Corporation, Chatsworth, Calif.) was used to measure CO levels continuously in the chamber. Mice were placed in the chamber 24 hours before the induction of the colitis and were kept in the exposure chamber during the whole period of the experiment (total of 8 days). […] Animals were removed daily from the chamber to assess weight and stool.\nEvaluation of Symptoms of Colitis. All animals were evaluated clinically on a daily basis. The evaluation of each animal included a measurement of weight, hemoccult positivity and examination of stool for the presence of gross blood and stool consistency. The disease activity index (DAI) was calculated by scoring percent weight loss, intestinal bleeding (no blood; occult blood=hemoccult+; gross blood) and stool consistency (normal stool=well-formed pellets; loose stool=pasty and semiformed stools; diarrhea=liquid stool that stuck to the anus) (Table 1).\nThe animals were sacrificed, and the whole colon from the colo-cecal junction to the anal verge was removed and gently cleaned of stool. […]"}, "[1]": {"test_system": "DBA/2 cardiac allografts in B6AF1 recipients", "test": "Heterotopic cardiac allograft transplantation, graft survival", "type": "in vivo, mice", "method": "Animals. Male DBA/2 (H-2^d), B6AF1 (H-2^k/d,b) and FVB (H-2^q) mice were purchased from Jackson Lab. Inc. (Bar Harbor, Me.). They were maintained in the institutional specific-pathogen free facility, which has an appropriate light cycle with free access to water and chow ad libitum, and used for experiments at age of 6-10 weeks.\nCardiac transplantation. DBA2/J and B6AF1 mice were used as donor and recipient, respectively. Heterotopic heart transplantation was carried out according to the procedure of Corry and Russell (Corry et al., Transplant Proc. 5(1):733-5, 1973). […] Secondary heart grafting into the neck was performed using a cuff technique as described previously (Matsuura et al., Transplantation 51(4):896-8, 1991). Briefly, the heart graft was harvested from either DBA2/J (donor strain) or FVB (third-party strain) mice. The right jugular vein and the right common carotid artery of recipient were dissected, and a cuff (polyethylene or polyimide) was connected to these vessels. The graft aorta and pulmonary artery were sleeved over the cuff on the recipient's common carotid artery and the jugular vein, respectively, and fixed with a ligature. After transplantation, beating of the graft was monitored by daily palpation, and scored +1 to +4 according to the strength of graft contractions. Graft rejection was defined as cessation of beating, and was confirmed by direct inspection followed by histological examination.\nDonor and recipient mice were treated either with CoPPIX (5 mg/kg/day), ZnPPIX (5 mg/kg/day) or biliverdin (administered once, twice or three times per day at a dose of 50 μmol/kg/dose). All reagents were administered by intraperitoneal (i.p.) injection. Donor animals were treated for 2 days, starting from 2 days before graft harvest (day-2 and day-1). Treatment of recipient mice was initiated one day before transplantation, and continued until 13 days post-transplant (day-1 to day 13). For the experiments using donor splenocyte infusion (DSI) on day-7 (DSI (D-7)), treatments of recipient animals (either with CoPPIX or ZnPPIX) started from day-8 and were terminated on day 6. Recipients received no further treatment. Spleen cells (2×10^7) isolated from DBA/2J mice as described herein were used for DSI treatment. The cells were injected via the penile vein with 200 μl of 0.9% saline solution.\nStatistics. Cardiac graft survival was plotted by the Kaplan-Meier method, and a log-rank test was applied to compare statistical significance. Expression levels of HO-1/α-actin protein are expressed as mean±standard deviation. Other data are expressed as mean±standard error of the mean (mean±SEM). Intergroup statistical analysis was performed by one-way ANOVA, and Fisher's PSLD was used for a post-hoc test. A comparison was considered statistically significant when the p-value was <0.05."}, "recipient splenocytes": {"test_system": "recipient splenocytes", "test": "Mixed lymphocyte culture with splenocytes of treated cardiac allograft recipients", "type": "in vivo, mice", "conditions": "harvested 5 days after cardiac transplantation, 72 hours culture with DBA/2 splenocytes; compared to controls", "method": "Mixed lymphocyte culture (MLC). Irradiated (25Gy, ^137Cs) DBA/2 splenocytes (5×10^5/well) were co-cultured with responders (5×10^5/well) in a 96 well round bottom plates for 3 days at 37° C., 95% air with 5% CO2. When using cells from cardiac recipients as responders, the co-culture period was 3 days without any further in vitro treatment. ^3H-thymidine (1 μCi/well) was added 16 hours before termination of cell culture, and ^3H-thymidine incorporation was measured.\nInduction of HO-1 expression or biliverdin administration suppresses the T cell mediated alloimmune response in vivo. […] Recipient splenocytes harvested 5 days after cardiac transplantation were used as responder cells in an in vitro culture with DBA/2 splenocytes as feeder cells. Proliferation was measured at 72 hours (FIG. 9)."}, "HO-1": {"test_system": "HO-1", "test": "HO activity assay on spleen and heart of treated mice", "type": "in vivo, DBA/2J mice", "conditions": "5 mg/kg i.p., one day after treatment", "method": "HO activity assay. DBA/2J mice were given either no treatment or CoPPIX or ZnPPIX at a dose of 5 mg/kg, i.p. (n=10 per group). One day after the treatment, the animals were sacrificed, the spleen and the heart were excised, and tissue samples were frozen at −80° C. Frozen tissue samples were homogenized in ice-cold sucrose and Tris-HCl buffer. The microsomal pellet was obtained after centrifugation and re-suspended in MgCl2-potassium phosphate buffer. Sample protein was then incubated with the reaction mixture containing rat liver cytosol, hemin, glucose-6-phosphate, glucose-6-phosphate dehydrogenase and NADPH (Sigma-Aldrich Corporation, St. Louis, Mo.) for 60 minutes at 37° C. The generated bilirubin was measured by reacting with diazotized surfanilic acid to yield azobilirubin using spectrophotometer."}, "[2]": {"test_system": "DBA/2 islets in diabetic B6AF1 recipients", "test": "Allogeneic islet transplantation, graft survival and tolerance test", "type": "in vivo, mice", "method": "Animals. Male DBA/2, B6AF1 and DBA/1 mice 6-8 week of age (Jackson) are used in the experiments. Mice were kept for 2 weeks at 4 mice/cage and fed normal laboratory chow before using for the experiment.\nTreatment protocol. Recipients were rendered diabetic using streptozotocin (STZ, 225 mg/kg). Five days after STZ administration, animals with two consecutive blood glucose levels exceeding 350 mg/dl are used as recipients. Islets (500) are transplanted under the kidney capsule of the recipients.\nReagents. Cobalt protoporphyrin (CoPPIX, Porphyrin Products, Logan, Utah), biliverdin dihydrochloride and bilirubin (ICN Biomedicals Inc., OH) were dissolved in a small amount of 0.2 M NaOH, subsequently adjusted to a pH of 7.4 with 1 M HCl, and diluted in 1×PBS. The stock solutions (CoPPIX=2 mg/ml, biliverdin=3.2 mg/ml, bilirubin=0.5 mg/ml) were aliquoted and kept at −70° C. until used. Light exposure was limited as much as possible.\nInduction of HO-1/Administration of biliverdin/bilirubin. When given to the donor, CoPPIX (20 mg/kg) was given 24 hours before islet isolation to induce HO-1 expression. To verify HO-1 expression in different organs after CoPP treatment, tissue samples are collected 24 hours after treatment and snap frozen in liquid nitrogen. Immunohistological analysis of HO-1 expression is performed using an anti-HO-1 antibody. CoPPIX (20 mg/kg) was administrated to the recipient intraperitoneally (i.p.) on day-1, 1, 3, 5 and 7. Biliverdin (50 μmol/kg) or bilirubin (8.5 μmol/kg) was given intraperitoneally to the donor one hour before islet isolation. For the recipient, biliverdin (50 μmol/kg) or bilirubin ([…]) was administered intraperitoneally either daily or twice per day from day-1 until day 13. No further treatment was given afterwards.\nMeasurement of Glucose level. Glucose levels were tested twice weekly after transplantation. Glucose levels of <200 mg/dl were considered normoglycemic. Grafts were considered rejected when two consecutive glucose levels were >300 mg/dl.\nTolerance test. The first graft was removed from a number of animals that had islets surviving long-term (longer than 100 days) by doing a nephrectomy. Islets syngeneic with the original donor were transplanted under the contralateral kidney capsule without further treatment. If those second transplanted islets also survived longer than 100 days without further treatment, the recipients were considered tolerant."}},
  "data": [
    {"smiles": "CC(=O)N(O)CCCCCNC(=O)CCC(=O)N(O)CCCCCNC(=O)CCC(=O)N(O)CCCCCN", "note": "[DFO, Desferoxamine]", "values": [
      {"measurement": "protective effect on DSS-colitis", "setting": "DSS-colitis; intraperitoneal osmotic pumps, 130 mg/kg/d", "result": "no protective effect was observed"},
      {"measurement": "protective effect on DSS-colitis", "setting": "DSS-colitis; subcutaneous injections of 125 mg/kg twice daily", "result": "no protective effect"}
    ]},
    {"smiles": "C=CC1=C(C)c2cc3[n-]c(cc4nc(cc5[n-]c(cc1n2)c(C)c5C=C)C(C)=C4CCC(=O)O)c(CCC(=O)O)c3C.[Zn+2]", "note": "[ZnPP, zinc protoporphyrin]", "values": [
      {"measurement": "effect on natural course of DSS colitis", "setting": "DSS-colitis; ZnPPIX 20 mg/kg i.p. daily, compared to untreated animals", "result": "no significant changes"},
      {"measurement": "graft prolongation effect", "setting": "[1]; ZnPPIX plus DSI (D0), compared to control or DSI (D0) alone", "result": "no significant graft prolongation effect"},
      {"measurement": "allografts with long-term survival", "setting": "[1]; ZnPPIX plus DSI (D-7)", "result": "0/9"},
      {"measurement": "graft MST", "setting": "[1]; ZnPPIX plus DSI (D-7)", "result": 13, "unit": "days"},
      {"measurement": "graft median survival time (MST)", "setting": "[1]; one dose per day i.p. (ZnPPIX 5 mg/kg; biliverdin 50 μmol/kg), untreated 11.5 days", "result": 11, "unit": "days"},
      {"measurement": "proliferation of recipient splenocytes", "setting": "recipient splenocytes", "result": "did not"},
      {"measurement": "HO-1 enzymatic activity", "setting": "HO-1", "result": "this was not the case"}
    ]},
    {"smiles": "C=CC1=C(C)/C(=C/c2[nH]c(Cc3[nH]c(/C=C4\\NC(=O)C(C)=C4C=C)c(C)c3CCC(=O)O)c(CCC(=O)O)c2C)NC1=O", "note": "[bilirubin]", "values": [
      {"measurement": "long-term survival of islets", "setting": "[2]; 2 dose per day (every twelve hours)", "result": 100, "unit": "%"},
      {"measurement": "long-term survival of islets", "setting": "[2]; single dose per day to donor and recipient", "result": 50, "unit": "%"}
    ]}
  ]
}
